Here are results for two molecules from ChEMBL document CHEMBL5528002, “Identification of selective 5-LOX and FLAP inhibitors as novel anti-inflammatory agents by ligand-based virtual screening” (Eur J Med Chem, 2024).

Structures are written as SMILES. Activity calls are given as the source filed them. No cut-off for these calls is given here.

In assay [1] the test system is Macrophage cell line. Description: Effect on lipid mediator formation in human M2-like phenotype MDM cells by measuring RvD2 formation at 10 uM pre-incubated for 15 mins followed by SACM stimulation and measured after 90 mins by UPLC-MS/MS analysis (reference value: 6 +/- 1 pg/ml). The format is functional. To be noted: time 105 min, 1.75 h.
For assay [2], the system named is Macrophage cell line. Put plainly: Effect on lipid mediator formation in human M1-like phenotype MDM cells by measuring 12-HETE formation at 10 uM pre-incubated for 15 mins followed by SACM stimulation and measured after 90 mins by UPLC-MS/MS analysis relative to control. It is filed as functional. To be noted: time 105 min, 1.75 h.
Assay [3] deals with Macrophage cell line. Description: Effect on lipid mediator formation in human M2-like phenotype MDM cells by measuring 12-HETE formation at 10 uM pre-incubated for 15 mins followed by SACM stimulation and measured after 90 mins by UPLC-MS/MS analysis (reference value: 3325 +/- 789 pg/ml). It is filed as functional. To be noted: time 105 min, 1.75 h.
Assay [4] has as its system Macrophage cell line. Put plainly: Effect on lipid mediator formation in human M2-like phenotype MDM cells by measuring 5S,6R-diHETE formation at 10 uM pre-incubated for 15 mins followed by SACM stimulation and measured after 90 mins by UPLC-MS/MS analysis relative to control. It is filed as functional. As to conditions: time 105 min, 1.75 h.
In assay [5] the test system is Macrophage cell line. Put plainly: Effect on lipid mediator formation in human M2-like phenotype MDM cells by measuring MaR1 formation at 10 uM pre-incubated for 15 mins followed by SACM stimulation and measured after 90 mins by UPLC-MS/MS analysis relative to control. It is filed as functional. To be noted: time 105 min, 1.75 h.
Assay [6] concerns Macrophage cell line. Description: Effect on lipid mediator formation in human M1-like phenotype MDM cells by measuring 17-HDHA formation at 10 uM pre-incubated for 15 mins followed by SACM stimulation and measured after 90 mins by UPLC-MS/MS analysis (reference value: 360 +/- 89 pg/ml). To be noted: time 105 min, 1.75 h. The format is functional.
In assay [7] the target is T1, Polyunsaturated fatty acid 5-lipoxygenase (Homo sapiens) (UniProt P09917).
T1 sequence (whole entry): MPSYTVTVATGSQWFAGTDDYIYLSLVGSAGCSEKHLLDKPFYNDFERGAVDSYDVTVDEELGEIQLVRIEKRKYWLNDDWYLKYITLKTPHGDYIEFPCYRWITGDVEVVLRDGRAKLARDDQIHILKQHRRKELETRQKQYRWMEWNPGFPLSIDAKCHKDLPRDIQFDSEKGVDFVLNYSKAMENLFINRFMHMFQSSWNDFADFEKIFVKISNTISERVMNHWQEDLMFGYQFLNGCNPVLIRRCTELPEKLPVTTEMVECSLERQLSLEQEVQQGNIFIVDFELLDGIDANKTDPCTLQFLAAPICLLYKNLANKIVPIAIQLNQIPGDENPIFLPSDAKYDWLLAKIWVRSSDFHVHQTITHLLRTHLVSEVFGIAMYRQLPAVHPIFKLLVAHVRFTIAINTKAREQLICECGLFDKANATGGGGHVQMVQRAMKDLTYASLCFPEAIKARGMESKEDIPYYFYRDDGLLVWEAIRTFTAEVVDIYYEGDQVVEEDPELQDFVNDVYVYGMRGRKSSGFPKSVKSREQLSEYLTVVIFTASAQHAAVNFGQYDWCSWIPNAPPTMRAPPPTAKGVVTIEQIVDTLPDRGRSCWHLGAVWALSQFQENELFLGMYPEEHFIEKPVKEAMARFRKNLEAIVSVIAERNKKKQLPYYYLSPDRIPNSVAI
Put plainly: Inhibition of 5-LOX in human Neutrophil assessed as enzyme remaining activity at 10 uM using arachidonic acid as substrate preincubated with compound for 15 mins followed by substrate and A23187 addition measured after 10 mins by RP-HPLC analysis relative to control. The format is cell-based. As to conditions: time 25.0 min.

Assay [8] relates to Macrophage cell line. Description: Effect on lipid mediator formation in human M1-like phenotype MDM cells by measuring PGD2 formation at 10 uM pre-incubated for 15 mins followed by SACM stimulation and measured after 90 mins by UPLC-MS/MS analysis (reference value: 46 +/- 15 pg/ml). The format is functional. As to conditions: time 105 min, 1.75 h.
Assay [9] has as its system Macrophage cell line. Description: Effect on lipid mediator formation in human M2-like phenotype MDM cells by measuring LTB4 formation at 10 uM pre-incubated for 15 mins followed by SACM stimulation and measured after 90 mins by UPLC-MS/MS analysis (reference value: 509 +/- 30 pg/ml). The format is functional. As to conditions: time 105 min, 1.75 h.
Assay [10] concerns Macrophage cell line. Put plainly: Effect on lipid mediator formation in human M2-like phenotype MDM cells by measuring 15-HEPE formation at 10 uM pre-incubated for 15 mins followed by SACM stimulation and measured after 90 mins by UPLC-MS/MS analysis relative to control. As to conditions: time 105 min, 1.75 h. The format is functional.
Assay [11] deals with Macrophage cell line. Put plainly: Effect on lipid mediator formation in human M2-like phenotype MDM cells by measuring MaR2 formation at 10 uM pre-incubated for 15 mins followed by SACM stimulation and measured after 90 mins by UPLC-MS/MS analysis (reference value: 16 +/- 1 pg/ml). It is filed as functional. As to conditions: time 105 min, 1.75 h.
The subject of assay [12] is Macrophage cell line. Put plainly: Effect on lipid mediator formation in human M1-like phenotype MDM cells by measuring 17-HDHA formation at 10 uM pre-incubated for 15 mins followed by SACM stimulation and measured after 90 mins by UPLC-MS/MS analysis relative to control. The format is functional. To be noted: time 105 min, 1.75 h.
Assay [13] deals with Macrophage cell line. Description: Effect on lipid mediator formation in human M2-like phenotype MDM cells by measuring PGE2 formation at 10 uM pre-incubated for 15 mins followed by SACM stimulation and measured after 90 mins by UPLC-MS/MS analysis (reference value: 159 +/- 24 pg/ml). As to conditions: time 105 min, 1.75 h. The format is functional.
Assay [14] deals with Macrophage cell line. Description: Effect on lipid mediator formation in human M1-like phenotype MDM cells by measuring PGF2alpha formation at 10 uM pre-incubated for 15 mins followed by SACM stimulation and measured after 90 mins by UPLC-MS/MS analysis (reference value: 471 +/- 100 pg/ml). As to conditions: time 105 min, 1.75 h. It is filed as functional.
Assay [15] deals with T1, Polyunsaturated fatty acid 5-lipoxygenase (Homo sapiens). Put plainly: Inhibition of human recombinant 5-LOX expressed in Escherichia coli BL21(DE3) assessed as enzyme remaining activity at 10 uM using arachidonic acid as substrate preincubated with compound for 15 mins followed by substrate and CaCl2 addition measured after 10 mins by RP-HPLC analysis relative to control. To be noted: time 25.0 min.

Assay [16] relates to Macrophage cell line. Put plainly: Effect on lipid mediator formation in human M1-like phenotype MDM cells by measuring DHA formation at 10 uM pre-incubated for 15 mins followed by SACM stimulation and measured after 90 mins by UPLC-MS/MS analysis relative to control. It is filed as functional. As to conditions: time 105 min, 1.75 h.
Assay [17] concerns Macrophage cell line. Put plainly: Effect on lipid mediator formation in human M1-like phenotype MDM cells by measuring 5-HETE formation at 10 uM pre-incubated for 15 mins followed by SACM stimulation and measured after 90 mins by UPLC-MS/MS analysis (reference value: 5357 +/- 1561 pg/ml). It is filed as functional. To be noted: time 105 min, 1.75 h.
Assay [18] has as its system Macrophage cell line. Put plainly: Effect on lipid mediator formation in human M1-like phenotype MDM cells by measuring 15-HETE formation at 10 uM pre-incubated for 15 mins followed by SACM stimulation and measured after 90 mins by UPLC-MS/MS analysis relative to control. It is filed as functional. As to conditions: time 105 min, 1.75 h.
Assay [19] can be described thus: Antioxidant activity assessed as DPPH radical scavenging activity at 10 uM incubated for 30 min by DPPH assay. It is filed as functional. (Loss of DPPH colour is used to gauge radical scavenging.)
For assay [20], the system named is Macrophage cell line. Description: Effect on lipid mediator formation in human M2-like phenotype MDM cells by measuring 5,15-diHETE formation at 10 uM pre-incubated for 15 mins followed by SACM stimulation and measured after 90 mins by UPLC-MS/MS analysis (reference value: 1231 +/- 356 pg/ml). The format is functional. To be noted: time 105 min, 1.75 h.

Consider `Oc1ccc(CCC2CCC(c3ccc(O)cc3)CO2)cc1` (stereo not given), for which the Activity was found to be 5 pg/mL with Macrophage cell line [1]; 87% in the assay with Macrophage cell line [2]; 4047 pg/mL with Macrophage cell line [3]; 7% in the assay with Macrophage cell line [4]; 106% with Macrophage cell line [5]; 485 pg/mL with Macrophage cell line [6]. The Activity in assay [7] was found to be 24.3%; in the assay on Macrophage cell line [8], 40 pg/mL; in the assay on Macrophage cell line [9] it was 71 pg/mL; with Macrophage cell line [10] it was 140%; in the assay on Macrophage cell line [11], 31 pg/mL; with Macrophage cell line [12] it was 135%. For the same molecule, the Activity was found to be 234 pg/mL in the assay on Macrophage cell line [13]; 331 pg/mL in the assay with Macrophage cell line [14]; 96.5% in assay [15]; 94% in the assay on Macrophage cell line [16]; 695 pg/mL in the assay with Macrophage cell line [17]; 85% with Macrophage cell line [18]. In the assay on Macrophage cell line [20], this molecule displayed an Activity of 751 pg/mL. Further, the outcome in assay [19] was inactive.

With `COc1ccc(C2=C/C(=C/c3ccc(O)cc3O)C(=O)O2)cc1`, the Activity in the assay on Macrophage cell line [1] was found to be 6 pg/mL; in the assay on Macrophage cell line [2], 87%; in the assay on Macrophage cell line [3] it was 3796 pg/mL; in the assay with Macrophage cell line [4] it was 4%; in the assay on Macrophage cell line [5], 189%; in the assay on Macrophage cell line [6], 380 pg/mL. Further, the Activity in [7] amounted to 18.6%; in the assay with Macrophage cell line [8], 72 pg/mL; in the assay on Macrophage cell line [9], 22 pg/mL; in the assay on Macrophage cell line [10], 157%; in the assay on Macrophage cell line [11] it was 36 pg/mL; in the assay with Macrophage cell line [12] it was 106%. Moreover, the Activity worked out at 412 pg/mL in the assay with Macrophage cell line [13]; 419 pg/mL with Macrophage cell line [14]; 84.5% in assay [15]; 108% in the assay with Macrophage cell line [16]; 361 pg/mL with Macrophage cell line [17]; 90% in the assay on Macrophage cell line [18]. This molecule displayed an Activity with Macrophage cell line [20] of 479 pg/mL. Moreover, in assay [19], the outcome was inactive.
